From BigSolDB 2.1

O=C(O[C@@H]1Cc2c(O)cc(O)cc2O[C@@H]1c1cc(O)c(O)c(O)c1)c1cc(O)c(O)c(O)c1
solubility (mole fraction)
Conditions | 278.15 K | 288.15 K | 298.15 K | 308.15 K | 318.15 K
in 2-butoxyethanol | 0.00142 | 0.00195 | 0.00268 | 0.00384 | 0.00559
in 2-ethoxyethanol | 0.00904 | 0.0151 | 0.0272 | 0.0436 | 0.0701
in 2-methoxyethanol | 0.0158 | 0.0254 | 0.0365 | 0.0558 | 0.0815
in 2-propoxyethanol | 0.00275 | 0.00352 | 0.00456 | 0.0059 | 0.00809
in ethanol | 5.41e-05 | 9.24e-05 | 0.000175 | 0.000387 | 0.000714
in isopropanol | 6e-06 | 1.67e-05 | 5.53e-05 | 0.000194 | 0.000481
in methanol | – | 1.65e-05 | 5.8e-05 | 0.000184 | 0.000612
in n-butanol | – | 1.95e-05 | 5.41e-05 | 0.000136 | 0.000349
in n-hexanol | 6.8e-07 | 3.87e-06 | 1.79e-05 | 5.35e-05 | 0.000138
in n-pentanol | 9.9e-07 | 5.7e-06 | 3.01e-05 | 8.6e-05 | 0.000187
in n-propanol | 1.22e-05 | 3.79e-05 | 9.06e-05 | 0.000195 | 0.000656
in sec-butanol | 5.04e-06 | 2.12e-05 | 4.97e-05 | 0.00014 | 0.000636
